Laboratory results published in the supplement of paper PMC4862054.

Assays:
Assay in all cases: drug sensitivity score (DSS), CellTiter-Blue viability (DSS (AUC-based score)); higher = stronger viability inhibition; extreme values may be limits of the assay
Conditions in all cases: incubation time: 72 h
[1] = test system: MFM-223
Protocol: (§1)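 DSRT with the CellTiter-Blue (resazurin reduction) viability readout, fluorescence 560/590 nm, 72 h incubation. Plates were normalised to DMSO and benzethonium chloride controls. DSS is computed from the area under the fitted dose-response curve (5 or 9 concentrations).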

[2] = test system: CAL-148
Protocol: as §1

[3] = test system: HCC1599
Protocol: as §1

[4] = test system: CAL-51
Protocol: as §1

[5] = test system: MDA-MB-231
Protocol: as §1

[6] = test system: HDQ-P1
Protocol: as §1

[7] = test system: CAL-120
Protocol: as §1

[8] = test system: SK-BR-3
Protocol: as §1

[9] = test system: DU-4475
Protocol: as §1

[10] = test system: BT-549
Protocol: as §1

[11] = test system: BT-474
Protocol: as §1

[12] = test system: CAL-85-1
Protocol: as §1

[13] = test system: HCC1937
Protocol: as §1

[14] = test system: MDA-MB-436
Protocol: as §1

[15] = test system: Hs578T
Protocol: as §1

[16] = test system: MDA-MB-453
Protocol: as §1

[17] = test system: HCC1143
Protocol: as §1

## Clc1ccc(C(c2ccccc2Cl)C(Cl)Cl)cc1 (stereo not given) [Mitotane]
[1]
  drug sensitivity score: 0
[2]
  drug sensitivity score: 0
[3]
  drug sensitivity score: 0
[4]
  drug sensitivity score: 0
[5]
  drug sensitivity score: 0
[6]
  drug sensitivity score: 0
[7]
  drug sensitivity score: 0
[8]
  drug sensitivity score: 0
[9]
  drug sensitivity score: 0
[10]
  drug sensitivity score: 0
[11]
  drug sensitivity score: 0
[12]
  drug sensitivity score: 0
[13]
  drug sensitivity score: 0
[14]
  drug sensitivity score: 0
[15]
  drug sensitivity score: 0
[16]
  drug sensitivity score: 0
[17]
  drug sensitivity score: 0

## COc1cccc2cc(-c3nc([C@H]4CC[C@H](C(=O)O)CC4)n4ncnc(N)c34)[nH]c12 [OSI-027]
[1]
  drug sensitivity score: 15.2
[2]
  drug sensitivity score: 9.33
[3]
  drug sensitivity score: 5.99
[4]
  drug sensitivity score: 9.33
[5]
  drug sensitivity score: 6.73
[6]
  drug sensitivity score: 14.9
[7]
  drug sensitivity score: 8.32
[8]
  drug sensitivity score: 21.7
[9]
  drug sensitivity score: 6.08
[10]
  drug sensitivity score: 6.62
[11]
  drug sensitivity score: 9.76
[12]
  drug sensitivity score: 9.36
[13]
  drug sensitivity score: 8.55
[14]
  drug sensitivity score: 13.1
[15]
  drug sensitivity score: 9.33
[16]
  drug sensitivity score: 13.7
[17]
  drug sensitivity score: 7.21

## OC[C@H]1O[C@@H](n2cnc3c2N=CNC[C@H]3O)C[C@@H]1O [Pentostatin]
[1]
  drug sensitivity score: 0
[2]
  drug sensitivity score: 0
[3]
  drug sensitivity score: 0
[4]
  drug sensitivity score: 0
[5]
  drug sensitivity score: 0
[6]
  drug sensitivity score: 0
[7]
  drug sensitivity score: 0
[8]
  drug sensitivity score: 0
[9]
  drug sensitivity score: 0
[10]
  drug sensitivity score: 0
[11]
  drug sensitivity score: 0
[12]
  drug sensitivity score: 0
[13]
  drug sensitivity score: 0
[14]
  drug sensitivity score: 0
[15]
  drug sensitivity score: 0
[16]
  drug sensitivity score: 0
[17]
  drug sensitivity score: 0

## N#CC[C@H](C1CCCC1)n1cc(-c2ncnc3[nH]ccc23)cn1 [Ruxolitinib]
[1]
  drug sensitivity score: 0
[2]
  drug sensitivity score: 0
[3]
  drug sensitivity score: 0
[4]
  drug sensitivity score: 0
[5]
  drug sensitivity score: 0
[6]
  drug sensitivity score: 0
[7]
  drug sensitivity score: 0
[8]
  drug sensitivity score: 0
[9]
  drug sensitivity score: 0
[10]
  drug sensitivity score: 0
[11]
  drug sensitivity score: 0
[12]
  drug sensitivity score: 0
[13]
  drug sensitivity score: 1.92
[14]
  drug sensitivity score: 0
[15]
  drug sensitivity score: 0
[16]
  drug sensitivity score: 0
[17]
  drug sensitivity score: 0

## C=CC[C@@H]1/C=C(\C)C[C@H](C)C[C@H](OC)[C@H]2O[C@@](O)(C(=O)C(=O)N3CCCC[C@H]3C(=O)O[C@H](/C(C)=C/[C@@H]3CC[C@@H](O)[C@H](OC)C3)[C@H](C)[C@@H](O)CC1=O)[C@H](C)C[C@@H]2OC [Tacrolimus]
[1]
  drug sensitivity score: 0
[2]
  drug sensitivity score: 0
[3]
  drug sensitivity score: 0
[4]
  drug sensitivity score: 0
[5]
  drug sensitivity score: 0
[6]
  drug sensitivity score: 0
[7]
  drug sensitivity score: 0
[8]
  drug sensitivity score: 0
[9]
  drug sensitivity score: 0
[10]
  drug sensitivity score: 0
[11]
  drug sensitivity score: 0
[12]
  drug sensitivity score: 0
[13]
  drug sensitivity score: 0
[14]
  drug sensitivity score: 0
[15]
  drug sensitivity score: 0
[16]
  drug sensitivity score: 0
[17]
  drug sensitivity score: 0

## C=CCNC1=C2C[C@@H](C)C[C@H](OC)[C@H](O)[C@@H](C)/C=C(\C)[C@H](OC(N)=O)[C@@H](OC)/C=C\C=C(/C)C(=O)NC(=CC1=O)C2=O [Tanespimycin]
[1]
  drug sensitivity score: 25.8
[2]
  drug sensitivity score: 22.4
[3]
  drug sensitivity score: 16.3
[4]
  drug sensitivity score: 16.9
[5]
  drug sensitivity score: 9.87
[6]
  drug sensitivity score: 19.3
[7]
  drug sensitivity score: 14.8
[8]
  drug sensitivity score: 29.2
[9]
  drug sensitivity score: 28.2
[10]
  drug sensitivity score: 24.3
[11]
  drug sensitivity score: 21.3
[12]
  drug sensitivity score: 15.7
[13]
  drug sensitivity score: 18.2
[14]
  drug sensitivity score: 25.2
[15]
  drug sensitivity score: 20.5
[16]
  drug sensitivity score: 32.6
[17]
  drug sensitivity score: 24.8

## CO[C@H]1C[C@@H]2CC[C@@H](C)[C@@](O)(O2)C(=O)C(=O)N2CCCC[C@H]2C(=O)O[C@H]([C@H](C)C[C@@H]2CC[C@@H](OC(=O)C(C)(CO)CO)[C@H](OC)C2)CC(=O)[C@H](C)/C=C(\C)[C@@H](O)[C@@H](OC)C(=O)[C@H](C)C[C@H](C)/C=C/C=C/C=C/1C [Temsirolimus]
[1]
  drug sensitivity score: 20.8
[2]
  drug sensitivity score: 25.6
[3]
  drug sensitivity score: 0
[4]
  drug sensitivity score: 22.2
[5]
  drug sensitivity score: 0
[6]
  drug sensitivity score: 7.62
[7]
  drug sensitivity score: 16.4
[8]
  drug sensitivity score: 17.9
[9]
  drug sensitivity score: 15.7
[10]
  drug sensitivity score: 18.1
[11]
  drug sensitivity score: 12.1
[12]
  drug sensitivity score: 14.7
[13]
  drug sensitivity score: 0
[14]
  drug sensitivity score: 5.67
[15]
  drug sensitivity score: 17.3
[16]
  drug sensitivity score: 31.8
[17]
  drug sensitivity score: 11.1

## C[C@]1(c2nc3c(C(N)=O)cccc3[nH]2)CCCN1 [Veliparib]
[1]
  drug sensitivity score: 0
[2]
  drug sensitivity score: 0
[3]
  drug sensitivity score: 0
[4]
  drug sensitivity score: 0
[5]
  drug sensitivity score: 0
[6]
  drug sensitivity score: 0
[7]
  drug sensitivity score: 0
[8]
  drug sensitivity score: 0
[9]
  drug sensitivity score: 0
[10]
  drug sensitivity score: 0
[11]
  drug sensitivity score: 0
[12]
  drug sensitivity score: 0
[13]
  drug sensitivity score: 0
[14]
  drug sensitivity score: 0
[15]
  drug sensitivity score: 0
[16]
  drug sensitivity score: 0
[17]
  drug sensitivity score: 0

## CC[C@]1(O)C[C@@H]2CN(CCc3c([nH]c4ccccc34)[C@@](C(=O)OC)(c3cc4c(cc3OC)N(C)[C@H]3[C@@](O)(C(=O)OC)[C@H](OC(C)=O)[C@]5(CC)C=CCN6CC[C@]43[C@@H]65)C2)C1 [Vinblastine]
[1]
  drug sensitivity score: 13.1
[2]
  drug sensitivity score: 18.7
[3]
  drug sensitivity score: 7.99
[4]
  drug sensitivity score: 16.1
[5]
  drug sensitivity score: 27.7
[6]
  drug sensitivity score: 18.2
[7]
  drug sensitivity score: 32
[8]
  drug sensitivity score: 35.2
[9]
  drug sensitivity score: 13.7
[10]
  drug sensitivity score: 25.2
[11]
  drug sensitivity score: 21.8
[12]
  drug sensitivity score: 17.8
[13]
  drug sensitivity score: 32
[14]
  drug sensitivity score: 18.7
[15]
  drug sensitivity score: 30.7
[16]
  drug sensitivity score: 20
[17]
  drug sensitivity score: 19.4

## CS(=O)(=O)c1ccc(C(=O)Nc2ccc(Cl)c(-c3ccccn3)c2)c(Cl)c1 [Vismodegib]
[1]
  drug sensitivity score: 0
[2]
  drug sensitivity score: 0
[3]
  drug sensitivity score: 0
[4]
  drug sensitivity score: 0
[5]
  drug sensitivity score: 0
[6]
  drug sensitivity score: 0
[7]
  drug sensitivity score: 0
[8]
  drug sensitivity score: 0
[9]
  drug sensitivity score: 0
[10]
  drug sensitivity score: 0
[11]
  drug sensitivity score: 0
[12]
  drug sensitivity score: 0
[13]
  drug sensitivity score: 1.01
[14]
  drug sensitivity score: 4.6
[15]
  drug sensitivity score: 0
[16]
  drug sensitivity score: 0
[17]
  drug sensitivity score: 0
